From patent US12180174B2, “A2-73 crystalline polymorph compositions of matter and methods of use thereof” (ANAVEX LIFE SCIENCES CORP., priority 2018, dated 2024)
Structures can show the parent of a compound that is named as a salt. Where two headings read alike, the source gives them in different places.

What was measured:
[1] = system: unspecified progressive dementia; test: Cognitive function of patients with unspecified progressive dementia, enteric coated tablet; format: in vivo, human; details: 180 days
Method: A person with unspecified progressive dementia is administered 30 mg of […]2-73 fumarate in an enteric coated tablet every other day for 180 days. Blood levels reveal about 25 mg per day are being administered. […] A person with unspecified progressive dementia is administered 50 mg of […]2-73 freebase in an enteric coated tablet every other day for 180 days. Blood levels reveal about 20 mg per day are being administered.

[2] = Hygroscopicity / gravimetric vapor sorption (GVS); format: physicochemical; details: for water uptake (GVS): 90% RH
Method: This is confirmed by gravimetric vapor sorption (GVS) analysis, showing minimal water update (0.3% w/w) up to 90% RH. […] (peak temperature at ca. 91° C.). Upon further heating, Form I appears to sublime, beginning above ca. 120° C. with a weight loss of ca. 99% observed by 212.6° C. ^1H NMR spectra and HPLC-MS results were consistent with the structure of A2-73 freebase. […] FIG. 15 is a […]polarized-light microscopy (PLM) of Freebase Form I. XRPD pattern of Anavex2-73 freebase Form I obtained using copper Ka radiation is shown in FIG. 16.

[3] = Blood levels in patients on extended release dosage forms; format: in vivo, human; details: person
Method: A person presents with early signs of Alzheimer's disease. They are administered a pharmaceutical composition via transdermal patch containing 100 mg ANAVEX2-73 freebase with a 4 cm2 patch replaced approximately every three days administration for 120 days. Blood levels of about 10 ng/ml are being maintained.
A person presents with signs of early onset Alzheimer's disease. They are administered via a 9 cm2 transdermal patch containing a pharmaceutical composition containing 200 mg ANAVEX2-73 freebase with the patch replaced weekly for 180 days. Blood levels of about 12 ng/ml are being maintained.
A person with unspecified progressive dementia is administered 30 mg of ANAVEX2-73 fumarate in an enteric coated tablet every other day for 180 days. Blood levels reveal about 25 mg per day are being administered.
A person with unspecified progressive dementia is administered 50 mg of ANAVEX2-73 freebase in an enteric coated tablet every other day for 180 days. Blood levels reveal about 20 mg per day are being administered.

[4] = system: Alzheimer's disease; test: Cognitive function of patients with Alzheimer's disease, transdermal patch; format: in vivo, human
Method: A person presents with early signs of Alzheimer's disease. They are administered a pharmaceutical composition via transdermal patch containing 100 mg […]2-73 freebase with a 4 cm2 patch replaced approximately every three days administration for 120 days. Blood levels of about 10 ng/ml are being maintained. […] A person presents with signs of early onset Alzheimer's disease. They are administered via a 9 cm2 transdermal patch containing a pharmaceutical composition containing 200 mg […]2-73 freebase with the patch replaced weekly for 180 days. Blood levels of about 12 ng/ml are being maintained.

[5] = Solubility at defined pH; format: physicochemical
[6] = Solvent solubility screen; format: physicochemical; details: for solubility: read-out: Approx. Solubility
[7] = Solid form stability (storage, drying); format: physicochemical
[8] = pH of a saturated solution; format: physicochemical; details: saturated solution in water
[9] = system: ULK1; test: ULK1 serine 555 phosphorylation, Western blot; format: cell-based, human; details: 1 μM; HeLa cells
Source text: Activation of the serine/threonine protein kinase ULK1 (unc-51-like kinase 1) via phosphorylation at serine 555 indicates stimulation of the canonical autophagy pathway. […] It has to be mentioned that this activating ULK1 phosphorylation can be inhibited by mTOR as well as stimulated via AMPK kinase. Both are basal physiological sensors of nutritional conditions and key signal transducers of canonical autophagy stimulation. ULK1 is in fact the signal mediating the induction of the formation of the phagophore during the autophagy process and, therefore, a central promoter of autophagy. ULK1 itself functions in a complex with at least three protein partners: FI P200 (focal adhesion kinase family interacting protein of 200 kDa), ATG (autophagy-related protein) 13 (ATG13), and ATG101.
Cell culture and microscopy. HeLa and HEK293A cells were cultured in DMEM (Invitrogen, Carlsbad, CA, USA, 41965062) supplemented with active FBS (Life Technologies GmbH, Carlsbad, CA, USA, 10270106), 1×ABAM (Invitrogen, 15240-062) and 1 mM sodium pyruvate (Invitrogen, 1136-088). […] Proteins were detected by chemiluminescence using the Amersham Imager 600 (GE). Confocal fluorescence microscopical analyses of HEK293A cells stably expressing GFP-LC3B were performed with the laser scanning microscope LSM 710 (Zeiss, Oberkochen).

[10] = system: HeLa cells; test: LC3-II autophagic flux, Western blot with Bafilomycin A1; format: cell-based, human; details: 1 μM, BafiA1 2 μM, vs control
Method: To study the effect of ANAVEX2-73 on autophagy, human HeLa cells were treated with the compound and autophagic activity was analyzed by investigating the flux of LC3-II. LC3-II is the lipidated form of LC3, which (partially) stays attached to autophagosomes and thus, gets degraded by lysosomes. Therefore, the quantification of the LC3-II flux, using Bafilomycin AI (BafiAi; 2 μM) for inhibition of lysosomal degradation, directly corresponds to cellular autophagic activity. […] There is a concentration-dependent and significant increase in the autophagic-flux following application of ANAVEX2-73: an increase of over 2-fold at 10 μM and over 1.5-fold at 1 μM ANAVEX2-73 (FIG. 35A). As standard positive control to provoke the induction of autophagy, HeLa cells were incubated with EBSS, which resembles nutrient deprivation as autophagy stimulus.
Cell culture and microscopy. HeLa and HEK293A cells were cultured in DMEM (Invitrogen, Carlsbad, CA, USA, 41965062) supplemented with active FBS (Life Technologies GmbH, Carlsbad, CA, USA, 10270106), 1×ABAM (Invitrogen, 15240-062) and 1 mM sodium pyruvate (Invitrogen, 1136-088). After medium change, the cells were treated for 2 h with 10, 1, and 0.1 μM ANAVEX2-73 and PRE-084 (Tocris, Bristol, UK, 0589), respectively; ANAVEX2-73 was provided by ANAVEX Life Sciences Corp, New York, NY, USA. Afterwards Bafilomycin A1 (Bafi.Ai; 2 μM) (Toronto Research Chemicals, North York, ON, Canada, B110000) or DMSO was added for a further 2 h and the cells were eventually harvested. Western blot analyses were performed as described previously. Briefly, cells were subjected to SDS-PAGE using precast NuPAGE 4%-12% Bis-Tris gels (Invitrogen, NP0322). Proteins were detected by chemiluminescence using the Amersham Imager 600 (GE). Confocal fluorescence microscopical analyses of HEK293A cells stably expressing GFP-LC3B were performed with the laser scanning microscope LSM 710 (Zeiss, Oberkochen).

Compound: CN(C)CC1CCOC1(c1ccccc1)c1ccccc1 (centres unmarked) [A2-73 freebase Form I, tetrahydro-N,N-dimethyl-2,2-diphenyl-3-furanmethanamine]
- cognitive function ([1]; 50 mg enteric coated tablet every other day): stabilizes during that period with no additional loss detected
- hygroscopicity [2]: non-hygroscopic
- water uptake (GVS) [2]: 0.3 % w/w
- XRPD analysis post-GVS ([2]; post-GVS): no change in form
- amount administered per day as revealed by blood levels ([3]; 50 mg enteric coated tablet every other day, 180 days): about 20 mg per day
- blood levels maintained ([3]; transdermal patch 100 mg, 4 cm2, replaced approximately every three days, 120 days): about 10 ng/ml
- blood levels maintained ([3]; transdermal patch 200 mg, 9 cm2, replaced weekly, 180 days): about 12 ng/ml
- cognitive function ([4]; early onset Alzheimer's disease, patch 200 mg, 9 cm2, weekly, 180 days): stabilizes during that period with no additional loss detected
- cognitive function ([4]; early signs of Alzheimer's disease, patch 100 mg, 4 cm2, every three days, 120 days): stabilizes during that period, with no additional loss detected
- water solubility ([5]; water): not highly water soluble
- solubility ([6]; 1,4-dioxane, organic solvent or mixture): ≥ 200 mg/mL
- solubility ([6]; 1-butanol, organic solvent or mixture): ≥ 200 mg/mL
- solubility ([6]; 2-butanone, organic solvent or mixture): ≥ 200 mg/mL
- solubility ([6]; N,N′-dimethylformamide, organic solvent or mixture): ≥ 200 mg/mL
- solubility ([6]; acetone, organic solvent or mixture): ≥ 200 mg/mL
- solubility in the solvents tested (summary) ([6]; all solvents of Table 10): high solubility in all solvents tested, except water
- solubility ([6]; cyclohexane, organic solvent or mixture): ≥ 200 mg/mL
- solubility ([6]; dimethyl sulfoxide, organic solvent or mixture): ≥ 200 mg/mL
- solubility ([6]; heptane, organic solvent or mixture): ≥ 200 mg/mL
- solubility ([6]; methyl acetate, organic solvent or mixture): ≥ 200 mg/mL
- solubility ([6]; methyl isobutyl ketone, organic solvent or mixture): ≥ 200 mg/mL
- solubility ([6]; nitromethane, organic solvent or mixture): ≥ 200 mg/mL
- solubility ([6]; tetrahydrofuran, organic solvent or mixture): ≥ 200 mg/mL
- solubility ([6]; water): < 5 mg/mL

Compound: CN(C)CC1CCOC1(c1ccccc1)c1ccccc1 (centres unmarked) [ANAVEX2-73 fumarate, tetrahydro-N,N-dimethyl-2,2-diphenyl-3-furanmethanamine]
- cognitive function ([1]; 30 mg enteric coated tablet every other day): stabilizes during that period with no additional loss detected
- amount administered per day as revealed by blood levels ([3]; 30 mg enteric coated tablet every other day, 180 days): about 25 mg per day

Compound: CN(C)CC1CCOC1(c1ccccc1)c1ccccc1 (centres unmarked) [A2-73 sulfate Form II, tetrahydro-N,N-dimethyl-2,2-diphenyl-3-furanmethanamine]
- form stability on storage ([7]; post-storage at 40° C./75% RH): metastable, converting to A2-73 sulfate Form I

Compound: CN(C)CC1CCOC1(c1ccccc1)c1ccccc1 (centres unmarked) [A2-73 dihydrogen phosphate Form I, tetrahydro-N,N-dimethyl-2,2-diphenyl-3-furanmethanamine]
- hygroscopicity [2]: hygroscopic
- solubility ([5]; pH 1.2, simulated gastric fluid, pH 1.2, read-out: solubility): ~47.2 mg/mL
- solubility ([5]; pH 4.5): ~33.1 mg/mL
- pH of a saturated solution [8]: 2.66

Compound: CN(C)CC1CCOC1(c1ccccc1)c1ccccc1 (centres unmarked) [A2-73 hydrogen fumarate Form III, tetrahydro-N,N-dimethyl-2,2-diphenyl-3-furanmethanamine]
- hygroscopicity [2]: slightly hygroscopic
- water uptake (GVS) [2]: ca. 0.9 % w/w
- solubility at GI pH ([5]; GI pH): lower solubility
- solubility at gastric pH ([5]; gastric pH (generally about 1.5 to 3.5)): moderate solubility
- solubility ([5]; pH 1.2): ca. 43.0 mg/mL
- solubility ([5]; pH 4.5): ~4.1 mg/mL
- solubility ([5]; pH 6.8, aqueous buffer, pH 6.8, read-out: solubility): ~12.6 mg/mL
- pH of a saturated solution [8]: 3.61

Compound: CN(C)CC1CCOC1(c1ccccc1)c1ccccc1.Cl (centres unmarked) [Form II, tetrahydro-N,N-dimethyl-2,2-diphenyl-3-furanmethanamine hydrochloride]
- hygroscopicity ([2]; hydrochloride): slightly hygroscopic

Compound: O=C(OCCN1CCOCC1)C1(c2ccccc2)CCCCC1 [PRE-084, 2-morpholin-4-ylethyl 1-phenylcyclohexane-1-carboxylate, reference compound]
- ULK1 serine 555 phosphorylation [9]: up to 1.5 fold
- increase in autophagic flux (LC3-II) [10]: over 1.5 fold

Compound: CN(C)CC1CCOC1(c1ccccc1)c1ccccc1.Cl (racemic) [Form VIII, tetrahydro-N,N-dimethyl-2,2-diphenyl-3-furanmethanamine hydrochloride]
- form stability on drying ([7]; dried after isolation wet with water): once dried, it converts to Form I

Compound: CN(C)CC1CCOC1(c1ccccc1)c1ccccc1.Cl (centres unmarked) [Form III, tetrahydro-N,N-dimethyl-2,2-diphenyl-3-furanmethanamine hydrochloride]
- hygroscopicity ([2]; hydrochloride): slightly-hygroscopic
